According to publication PMC10160982 (Proceedings of the National Academy of Sciences of the …, 2023):
pIC50: −log10 of the molar value.

Biological target: SARS-CoV-2 M^pro (Severe acute respiratory syndrome coronavirus 2, UniProt P0DTD1)
Assay: FRET-based SARS-CoV-2 Mpro inhibition activity assay
Type: biochemical
Conditions: SARS-CoV-2 M^pro inhibition IC50, FRET-based protease assay

COc1cc(O)ccc1/C=C/C(=O)c1ccc(O)cc1 [Echinatin]
pIC50: 4.65
